Measured values from PubChem BioAssay AID248 (DTP/NCI, 2004).
Where “and” joins values, the source holds several entries; their conditions need not be identical. Identical values can stand only once. Inconclusive results and toxic doses are left out. No stated cut-off is given here; in the data, active means T/C of 150% or more; inactive means T/C below 125%. Numbered stars: 1 amine (or outer) side, 2 acyl side, 3 side chain; on linkers, the order of the positions; unused ones are H or OH. Bridge positions count the residues as written; N and C are the ends. Square brackets hold non-standard residues; d marks the D form. Peptide text beside a SMILES is read from it. I, II: the chains in the order shown. Actinocin(9to1) = Cc1c2oc3c(C)ccc(C(=O)[*:1])c3nc-2c(C(=O)[*:2])c(N)c1=O; NMeV = CN[CH](C(=O)O)C(C)C; Sar = CNCC(=O)O

Test system: L1210 leukemia ip in BDF1 mice, survival T/C
Test: NCI In Vivo Anticancer Drug Screen. Data for tumor model L1210 Leukemia (intraperitoneal) in B6D2F1 (BDF1) mice
Conditions: endpoint: mean survival time, higher = longer survival
Outline: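 Survival endpoint. Drug-treated group vs vehicle group, expressed as T divided by C. Tumor passaged by transplantation.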

[1] = dose: 100.0 mg/kg/injection, schedule: Q04DX003 (ip), vehicle: Klucel (hydroxypropylcellulose) (HPC)
[2] = dose: 200.0 mg/kg/injection, schedule: Q04DX003 (ip), vehicle: Klucel (hydroxypropylcellulose) (HPC)
[3] = dose: 400.0 mg/kg/injection, schedule: Q04DX003 (ip), vehicle: Klucel (hydroxypropylcellulose) (HPC)
[4] = dose: 50.0 mg/kg/injection, schedule: Q04DX003 (ip), vehicle: saline
[5] = dose: 100.0 mg/kg/injection, schedule: Q04DX003 (ip), vehicle: saline
[6] = dose: 200.0 mg/kg/injection, schedule: Q04DX003 (ip), vehicle: saline

Measured: T/C

COc1ccc(/C(=C(/CC(=O)O)C(=O)OC(C)(C)C)c2cc(OC)c(OC)c(OC)c2)cc1OC
inactive: dose: 100.0 mg/kg/injection, schedule: Q01DX001 (ip), vehicle: carboxymethylcellulose (CMC) 96 % of control | dose: 200.0 mg/kg/injection, schedule: Q01DX001 (ip), vehicle: carboxymethylcellulose (CMC) 102 % of control | dose: 400.0 mg/kg/injection, schedule: Q01DX001 (ip), vehicle: carboxymethylcellulose (CMC) 97 % of control

Cc1c2oc3c(C)ccc(C(=O)NC4C(=O)NC(C(C)C)C(=O)N(C)CC(=O)N(C)CC(=O)N(C)C(C(C)C)C(=O)OC4C)c3nc-2c(C(=O)NC2C(=O)NC(C(C)C)C(=O)N(C)CC(=O)N(C)CC(=O)N(C)C(C(C)C)C(=O)OC2C)c(N)c1=O (configuration not stated) (I: TV[Sar][Sar][NMeV] / II: TV[Sar][Sar][NMeV]; ester I:1-I:C, II:1-II:C; linker I:N-II:N via Actinocin(9to1); configuration not given here)
inactive: dose: 0.05 mg/kg/injection, schedule: Q01DX009 (ip), vehicle: other 94 % of control | dose: 0.1 mg/kg/injection, schedule: Q01DX009 (ip), vehicle: other 108 % of control | dose: 0.2 mg/kg/injection, schedule: Q01DX009 (ip), vehicle: other 106 % of control | dose: 0.4 mg/kg/injection, schedule: Q01DX009 (ip), vehicle: other 115 % of control | dose: 0.5 mg/kg/injection, schedule: Q01DX001 (ip), vehicle: saline + alcohol 105 % of control | dose: 0.8 mg/kg/injection, schedule: Q01DX009 (ip), vehicle: other 120 % of control | dose: 1.0 mg/kg/injection, schedule: Q01DX001 (ip), vehicle: saline + alcohol 112 % of control | dose: 1.6 mg/kg/injection, schedule: Q01DX009 (ip), vehicle: other 92 % of control | dose: 2.0 mg/kg/injection, schedule: Q01DX001 (ip), vehicle: saline + alcohol 116 % of control | dose: 4.0 mg/kg/injection, schedule: Q01DX001 (ip), vehicle: saline + alcohol 113 % of control | dose: 62.5 micrograms/kg/injection, schedule: Q01DX009 (ip), vehicle: saline + alcohol 105 % of control | dose: 125.0 micrograms/kg/injection, schedule: Q01DX009 (ip), vehicle: saline + alcohol 112 % of control | dose: 188.0 micrograms/kg/injection, schedule: Q04DX003 (ip), vehicle: saline + alcohol 107 % of control | dose: 250.0 micrograms/kg/injection, schedule: Q01DX009 (ip), vehicle: saline + alcohol 119 % of control | dose: 375.0 micrograms/kg/injection, schedule: Q04DX003 (ip), vehicle: saline + alcohol 106 % of control | dose: 750.0 micrograms/kg/injection, schedule: Q04DX003 (ip), vehicle: saline + alcohol 112 % of control | dose: 1500.0 micrograms/kg/injection, schedule: Q04DX003 (ip), vehicle: saline + alcohol 119 % of control

O=C(Nc1ccc(Cl)c(Cl)c1)c1ccco1
inactive: dose: 12.5 mg/kg/injection, schedule: Q01DX009 (ip), vehicle: saline with Tween-80 92 % of control and 93 % of control | dose: 25.0 mg/kg/injection, schedule: Q01DX001 (ip), vehicle: saline with Tween-80 97 % of control | dose: 25.0 mg/kg/injection, schedule: Q04DX002 (ip), vehicle: saline with Tween-80 116 % of control and 91 % of control | dose: 25.0 mg/kg/injection, schedule: Q04DX003 (ip), vehicle: saline with Tween-80 96 % of control | dose: 50.0 mg/kg/injection, schedule: Q01DX001 (ip), vehicle: saline with Tween-80 103 % of control | dose: 50.0 mg/kg/injection, schedule: Q04DX002 (ip), vehicle: saline with Tween-80 116 % of control and 91 % of control | dose: 50.0 mg/kg/injection, schedule: Q04DX003 (ip), vehicle: saline with Tween-80 93 % of control | dose: 100.0 mg/kg/injection, schedule: Q01DX001 (ip), vehicle: saline with Tween-80 109 % of control | dose: 100.0 mg/kg/injection, schedule: Q01DX009 (ip), vehicle: saline with Tween-80 93 % of control | dose: 100.0 mg/kg/injection, schedule: Q04DX003 (ip), vehicle: saline with Tween-80 95 % of control

O=[N+]([O-])c1ccc(N/N=C2\CCCc3c2ccc2ccccc32)c([N+](=O)[O-])c1
inactive: dose: 100.0 mg/kg/injection, schedule: Q01DX001 (ip), vehicle: saline 97 % of control | dose: 200.0 mg/kg/injection, schedule: Q01DX001 (ip), vehicle: saline 92 % of control | dose: 400.0 mg/kg/injection, schedule: Q01DX001 (ip), vehicle: saline 103 % of control

Cc1cc(OC(=O)Nc2cc([N+](=O)[O-])ccc2F)cc(C)c1Cl
inactive: [1] 89 % of control | [2] 91 % of control | [3] 93 % of control

CCOc1ccc(NC(C)=O)cc1Br
inactive: dose: 100.0 mg/kg/injection, schedule: Q01DX001 (ip), vehicle: other 103 % of control | dose: 200.0 mg/kg/injection, schedule: Q01DX001 (ip), vehicle: other 103 % of control | dose: 400.0 mg/kg/injection, schedule: Q01DX001 (ip), vehicle: other 111 % of control

CN(C)CCSC(=O)N1c2ccccc2C(C)(C)c2ccccc21
inactive: dose: 12.5 mg/kg/injection, schedule: Q01DX009 (ip), vehicle: saline 94 % of control | dose: 25.0 mg/kg/injection, schedule: Q01DX009 (ip), vehicle: saline 100 % of control | dose: 25.0 mg/kg/injection, schedule: Q04DX003 (ip), vehicle: saline 91 % of control | dose: 50.0 mg/kg/injection, schedule: Q01DX009 (ip), vehicle: saline 111 % of control | [4] 102 % of control | [5] 96 % of control | [6] 90 % of control

COC(=O)CSc1nn2nnnc2c2ccccc12
inactive: [4] 95 % of control | [5] 103 % of control | [6] 98 % of control

COc1cccc(C=Nc2ccc(Br)cc2)c1O.COc1cccc(C=Nc2ccc(Br)cc2)c1O.[Co]
inactive: [5] 98 % of control | [6] 98 % of control | dose: 400.0 mg/kg/injection, schedule: Q04DX003 (ip), vehicle: saline 98 % of control

N#Cc1c(O)c(Cl)c(Cl)c(O)c1C#N
inactive: [1] 109 % of control | [2] 96 % of control | [3] 96 % of control

OC1(C#[C][Hg][C]#CC2(O)CCCCC2)CCCCC1
inactive: [1] 98 % of control | [2] 100 % of control

N/N=C(\N)NN
inactive: dose: 15.0 mg/kg/injection, schedule: Q01DX Z (ip), vehicle: methylcellulose (MC) 102 % of control | dose: 30.0 mg/kg/injection, schedule: Q01DX Z (ip), vehicle: methylcellulose (MC) 100 % of control | dose: 60.0 mg/kg/injection, schedule: Q01DX Z (ip), vehicle: methylcellulose (MC) 102 % of control | dose: 120.0 mg/kg/injection, schedule: Q01DX Z (ip), vehicle: methylcellulose (MC) 105 % of control | dose: 240.0 mg/kg/injection, schedule: Q01DX Z (ip), vehicle: methylcellulose (MC) 114 % of control | dose: 240.0 mg/kg/injection, schedule: Q01DX Z (oral), vehicle: methylcellulose (MC) 95 % of control | dose: 420.0 mg/kg/injection, schedule: Q01DX Z (oral), vehicle: methylcellulose (MC) 100 % of control | dose: 480.0 mg/kg/injection, schedule: Q01DX Z (ip), vehicle: methylcellulose (MC) 103 % of control | dose: 600.0 mg/kg/injection, schedule: Q01DX Z (oral), vehicle: methylcellulose (MC) 105 % of control | dose: 720.0 mg/kg/injection, schedule: Q01DX Z (ip), vehicle: methylcellulose (MC) 119 % of control

COc1ccc(-c2cc(-c3ccc(Cl)cc3)no2)cc1
inactive: [1] 106 % of control | [2] 92 % of control | [3] 95 % of control

COc1ccc2c(c1)CCC1=C2CCC(C)(C(C)=O)C1C(=O)O (configuration not stated)
inactive: dose: 25.0 mg/kg/injection, schedule: Q01DX009 (ip), vehicle: Klucel (hydroxypropylcellulose) (HPC) 101 % of control | dose: 25.0 mg/kg/injection, schedule: Q04DX003 (ip), vehicle: Klucel (hydroxypropylcellulose) (HPC) 97 % of control | dose: 50.0 mg/kg/injection, schedule: Q01DX009 (ip), vehicle: Klucel (hydroxypropylcellulose) (HPC) 98 % of control | dose: 50.0 mg/kg/injection, schedule: Q04DX003 (ip), vehicle: Klucel (hydroxypropylcellulose) (HPC) 100 % of control | dose: 100.0 mg/kg/injection, schedule: Q01DX009 (ip), vehicle: Klucel (hydroxypropylcellulose) (HPC) 95 % of control | [1] 102 % of control and 87 % of control

CC1(C)C2CC3C=CCCC3(C2)C1Br (configuration not stated)
inactive: dose: 100.0 mg/kg/injection, schedule: Q01DX001 (ip), vehicle: Klucel (hydroxypropylcellulose) (HPC) 103 % of control | dose: 200.0 mg/kg/injection, schedule: Q01DX001 (ip), vehicle: Klucel (hydroxypropylcellulose) (HPC) 92 % of control | dose: 400.0 mg/kg/injection, schedule: Q01DX001 (ip), vehicle: Klucel (hydroxypropylcellulose) (HPC) 100 % of control

C/C=C/C=C\COC(=O)C(C)C
inactive: dose: 100.0 mg/kg/injection, schedule: Q04DX002 (ip), vehicle: saline 103 % of control | dose: 200.0 mg/kg/injection, schedule: Q04DX002 (ip), vehicle: saline 96 % of control | dose: 400.0 mg/kg/injection, schedule: Q04DX002 (ip), vehicle: saline 114 % of control
